The target of this assay is T1, TFEB (Mus musculus, UniProt Q9R210).
T1 construct: the expression and distribution of endogenous TFEB in N2a cells treated with curcumin and its analogs are determined; endogenous in cells; host or cells: N2a cells
T1 sequence (Q9R210 1-475): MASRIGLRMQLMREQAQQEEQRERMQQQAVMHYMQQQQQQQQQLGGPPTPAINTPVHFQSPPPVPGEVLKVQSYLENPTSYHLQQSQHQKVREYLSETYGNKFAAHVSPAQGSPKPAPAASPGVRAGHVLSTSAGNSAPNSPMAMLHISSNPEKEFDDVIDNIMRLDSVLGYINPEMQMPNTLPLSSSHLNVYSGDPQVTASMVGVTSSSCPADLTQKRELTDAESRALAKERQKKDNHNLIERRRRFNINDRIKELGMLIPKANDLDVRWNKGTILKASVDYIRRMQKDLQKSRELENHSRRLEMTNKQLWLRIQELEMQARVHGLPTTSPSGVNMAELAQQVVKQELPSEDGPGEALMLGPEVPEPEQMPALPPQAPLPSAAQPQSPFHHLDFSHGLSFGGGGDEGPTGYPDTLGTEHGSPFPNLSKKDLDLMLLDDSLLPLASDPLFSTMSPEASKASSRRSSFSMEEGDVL
The assay can be described thus: Expression and distribution of endogenous TFEB in N2a cells (immunostaining, western blot). The format is cell-based. The following applies: for nuclear translocation (distribution) of endogenous TFEB / total levels (expression) of endogenous TFEB / nuclear accumulation of endogenous TFEB by immunofluorescence compared to vehicle control / nuclear translocation of endogenous TFEB, cytosolic and nuclear fractions by Western blots: N2a cells; for nuclear translocation (distribution) of endogenous TFEB / total levels (expression) of endogenous TFEB: 12 h, curcumin 10 μM, analogs 1 μM; for nuclear accumulation of endogenous TFEB by immunofluorescence compared to vehicle control / nuclear translocation of endogenous TFEB, cytosolic and nuclear fractions by Western blots: 1 μM, 12 hours. How it is done: Cells were treated with curcumin (Cur, 10 μM), A2, B3 and C1 (1 μM) for 12 h. […] Data is quantified by ImageJ software and is presented as mean±SD of three replicates for each treatment conditions. At least 1000 cells are analyzed in each treatment group. *p<0.05 vs. the control (0.1% DMSO). FIG. 4C is a western blot showing the expression of endogenous TFEB. […] Data are presented as the mean±SD from three independent experiments. *p<0.05 vs. the control (0.1% DMSO). FIG. 4E is fluorescence images showing expression of 3×Flag-TFEB in Hela cells having treated with Cur (10 μM), A2, B3 and C1 (1 μM) for 12 h. Torin 1 (1 μM) treatment for 2 h is used as a positive control. Cells were fixed and stained with anti-Flag antibody. […] FIG. 4G is the western blot showing the expression of Flag-tagged TFEB in the cytosolic (Cyt.) and nuclear (Nuc.) fractions. ACTB and H3F3A (H3 histone, family 3A) are used as loading control of cytoplasmic and nuclear fraction, respectively. FIG. 4H is showing the relative intensity of TFEB in the cytosolic and nuclear fractions. Data are presented as the mean±SD from three independent experiments. *p<0.05 vs. the control (0.1% DMSO).
N2a cells are treated with E2, E3 and E4 (1 μM) for 12 hours. Torin 1 (1 μM) treatment for 2 hours is used as a positive control. The cells are fixed and stained with TFEB antibody (green) and DAPI (blue) (FIG. 16A). TFEB translocate into nucleus are quantified. Quantification data (FIG. 16B) are presented as mean±SD of three replicates in a representative experiment. At least 500 cells are analyzed in each treatment group.
N2a cells are treated with E2, E3, and E4 (1 μM) for 12 hours. Torin 1 (1 μM) treatment for 2 hours is used as a positive control. The expression of endogenous TFEB in the cytosolic (Cyt.) and nuclear (Nuc.) fractions are determined by western blotting (FIG. 17A) and quantified (FIG. 17B). TUBB (β-tubulin) and H3F3A (H3 histone, family 3A) are used as loading control of cytoplasmic and nuclear fraction respectively. Quantification data are presented as the mean±SD from three independent experiments. *p<0.05 vs. the control (0.1% DMSO).
Cells are lysed on ice in 1× Lysis Buffer (9803, Life Technologies) with complete protease inhibitor mixture (04693124001, Roche Applied Science). Animal tissues are homogenized in nine volumes of ice-cold PBS supplemented with protease inhibitors. Cytosolic and nuclear fractions are isolated using protocols similar to those described previously. Anti-Flag or TFEB antibody is added to the whole cell lysates and Dynabeads® Protein G (10003D, Life Technologies) is used for immunoprecipitation. Proteins are separated by 10-15% SDS-PAGE, transferred, and blotted with the antibodies described. The blots are then incubated with secondary antibodies or the Clean-Blot IP Detection Reagent (21230, Thermo Scientific) at room temperature for 1 h. The protein signals are detected by ECL kit (32106, Pierce) and quantified using ImageJ software.
Cells are seeded on coverslips placed in 24-well plates. After drug treatment, slices are fixed with 3.7% paraformaldehyde, permeabilized in 0.2% Triton X-100 and blocked with 5% BSA. After blocking, the slices are stained with anti-TFEB (1:200) or anti-Flag (1:500) antibodies overnight at 4° C. Alexa Fluor®488 (green) or Alexa Fluor®594 (red) secondary antibodies (1:500) are added for 1 h at room temperature. After nuclear staining with DAPI, the slices are mounted with FluorSave reagent (345789, Calbiochem). Cells are visualized using an Eclipse 80i fluorescence microscope (Nikon Instruments Inc.)
Cells are lysed on ice in 1× Lysis Buffer (9803, Life Technologies) with complete protease inhibitor mixture (04693124001, Roche Applied Science) and phosphatase inhibitor (B15001, Biotool). Cytosolic and nuclear fractions are isolated using protocols similar to those described previously. Proteins are separated by 10-15% SDS-PAGE, transferred, and blotted with the antibodies described. […]

With `O=C(/C=C/c1cccc(C(F)(F)F)c1)/C=C/c1cccc(C(F)(F)F)c1` [A2, 1,5-bis(3-(trifluoromethyl)phenyl)penta-1,4-dien-3-one], the “nuclear translocation (distribution) of endogenous TFEB” value (shortened to “nuclear translocation (distribution)”) is given as “no effects” and the “total levels (expression) of endogenous TFEB” value (“total levels (expression)” below) was “no effects”.
Turning to `O=C(/C=C/c1ccc(O)cc1)/C=C/c1ccc(O)cc1` [B3, 1,5-bis(4-hydroxyphenyl)penta-1,4-dien-3-one], the “nuclear translocation (distribution)” value was “no effects” and the “total levels (expression)” value was “no effects”.
In the case of `COc1ccccc1/C=C/C(=O)/C=C/c1ccccc1OC` [C1, 1,5-bis(2-methoxyphenyl)penta-1,4-dien-3-one], the “nuclear translocation (distribution)” value was “promotes” and the “total levels (expression)” value is listed as “increases”.
With `O=C(/C=C/c1ccccc1Cl)/C=C/c1ccccc1Cl` [E2], the “nuclear accumulation of endogenous TFEB by immunofluorescence compared to vehicle control” value was “striking nuclear accumulation”; the “nuclear translocation of endogenous TFEB, cytosolic and nuclear fractions by Western blots” value was “potently induce”.
For `O=C(/C=C/c1ccccc1Br)/C=C/c1ccccc1Br` [E3], the “nuclear accumulation of endogenous TFEB by immunofluorescence compared to vehicle control” value is reported as “striking nuclear accumulation”; the “nuclear translocation of endogenous TFEB, cytosolic and nuclear fractions by Western blots” value is “potently induce”.
With `O=C(/C=C/c1ccccc1I)/C=C/c1ccccc1I` [E4], the “activity to promote TFEB nucleus translocation, comparison among E series analogs” value is on record as “best activity”; the “nuclear accumulation of endogenous TFEB by immunofluorescence compared to vehicle control” value is reported as “striking nuclear accumulation”; the “nuclear translocation of endogenous TFEB, cytosolic and nuclear fractions by Western blots” value is “potently induce”.
For `COc1cc(/C=C/C(=O)CC(=O)/C=C/c2ccc(O)c(OC)c2)ccc1O` [curcumin, Curcumin, reference compound], the “nuclear translocation (distribution)” value is recorded as “no effects” and the “total levels (expression)” value is “no effects”.

The values above are taken from US9540299B2, “MTOR-independent activator of TFEB for autophagy enhancement and uses thereof” (Hong Kong Baptist University, priority 2015, dated 2017).
